The values that follow come from US7893199B2, “Peptides having neutrophil-stimulating activity” (National University Corporation Gunma University, priority 2006, dated 2011).

The test concerns HL-60 cells differentiated into the neutrophil-like cells. Briefly: β-hexosaminidase-secreting activity of neutrophil-like differentiated HL-60 cells. Type of test: cell-based, human. As to conditions: neutrophil-like differentiated HL-60 cells; for EC50: Table 1, read-out: EC50 (μM), β-hexosaminidase-secreting activity; for Activity (β-hexosaminidase-secreting activity class): lowest concentration class at which secretion was confirmed. The text has this:
(1) Culture of Cell and Differentiation Into Neutrophil-like Cell
In this time, the cells were subcultured at a cell density of 1.0×10^5 cells/ml to 1.5×10^6 cells/ml, the number of cells was counted using a microscope, and the state of the cells was also confirmed.
The HL-60 cells were differentiated into neutrophil-like cells by setting the cell density in the flask to about 1.0×10^6 cells/ml, adding dibutylyl-cAMP (db-cAMP) as a differentiation-inducing agent so as to have a final concentration of 500 μM, and incubating the cells in the presence of CO2 at 37° C. for 3 days.
(2) Stimulation of Cell and Measurement of β-Hexosaminidase-secreting Activity
The cells were collected by centrifuging the suspension of the differentiated HL-60 cells (1,000 rpm, 5 minutes, 4° C.). After that, the following operation was repeated three times to wash the cells: Hepes buffered Hank's solution (HBHS) containing ice-cooled 0.1% BSA (1.2 mM CaCl2.2H2O, 5.4 mM KCl, 0.44 mM KH2PO4, 0.49 mM MgCl2.6H2O, 0.41 mM MgSO4.7H2O, 136.9 mM NaCl, 0.34 mM Na2HPO4, 10 mM Hepes, 4.2 mM NaHCO3, 5.5 mM D-glucose, pH 7.4) was added to the cells; the mixture was suspended by inversion; and the mixture was centrifuged again (1,000 rpm, 5 minutes, 4° C.). Subsequently, HBHS was added so that the mixture has a cell density of 5.6×10^6 cells/ml and suspended. Then, DNase I and cytochalasin B were each added so as to have a final concentration of 5 μg/ml, and the cell suspension was dispensed in an amount of 90 μl (5×10^5 cells) on ice. […] After the cell stimulation for 10 minutes, 100 μl of an ice-cooled stop solution (25 mM Tris, 123 mM NaCl, 2.7 mM KCl, pH 7.4) were added, and immediately, the mixture was centrifuged (5,000 rpm, 1 minute, 4° C.). 200 μl of the obtained supernatant were transferred to a new tube.
The amount of β-hexosaminidase released in the supernatant of the reaction solution was measured by an enzyme reaction using p-nitrophenyl-N-acetyl-μ-D-glucosaminide as a substrate (Non-patent Document 12). That is, the supernatant of the reaction solution was dispensed in an amount of 90 μl to a 96-well plate. 60 μl of a substrate solution (10 mM p-nitrophenyl-N-acetyl-μ-D-glucosaminide, 40 mM citrate, 70 mM Na2HPO4, pH 4.5) were added to each well, followed by incubation at 37° C. for 1 hour. After the reaction, 100 μl of a stop solution (0.4 M glycine, pH 10.7) were added to each well and a color of the released p-nitrophenol was developed. The color development was measured with a plate reader at adsorption at 405 nm (reference: 492 nm). The all amount of β-hexosaminidase contained in the cells was quantified by treating the cells with Triton X-100 having a final concentration of 0.05%. In addition, the amount of β-hexosaminidase secreted by stimulation of 10 μM fMLP was also measured, and the ratio of the secretion amount by stimulation with each peptide to the above sectretion amount by stimulation with fMLP.

Where a SMILES comes first, the peptide text is derived from it. Where no end group is shown, it is not given here.

The term EC50 denotes the midpoint of the concentration-response curve. For “017 (FTTFLTPAAYVLGNLKQFRRN) [compound 017]”, the EC50 is greater than 40 µM and the “Activity (β-hexosaminidase-secreting activity class)” value (“Activity” for short) is reported as “▴ (a peptide in which the β-hexosaminidase-secreting activity was confirmed at a concentration of 100 μM or less)”.

On to `CC[C@H](C)[C@H](NC(=O)[C@H](CC(C)C)NC(=O)[C@@H](N)CCSC)C(=O)N1CCC[C@H]1C(=O)N[C@@H](Cc1ccccc1)C(=O)N[C@@H](CO)C(=O)N[C@@H](CCSC)C(=O)N[C@@H](CCCCN)C(=O)N[C@@H](CC(N)=O)C(=O)N[C@@H](CS)C(=O)N[C@@H](Cc1ccccc1)C(=O)N[C@@H](CCC(N)=O)C(=O)N[C@@H](CC(C)C)C(=O)N[C@@H](CC(C)C)C(=O)N[C@@H](CS)C(=O)N[C@@H](CC(N)=O)C(=O)N[C@@H](CS)C(=O)N[C@@H](CCC(N)=O)C(=O)N[C@H](C(=O)N1CCC[C@H]1C(=O)N[C@@H](C)C(=O)N[C@@H](C)C(=O)NCC(=O)N[C@@H](Cc1ccccc1)C(=O)N[C@@H](CCCCN)C(=O)O)C(C)C` [compound 030] (H-MLIPFSMKNCFQLLCNCQVPAAGFK-OH; N-terminus and C-terminus assumed), for which the EC50 was determined as 1 µM and the “Activity” value is recorded as “∘ (a peptide in which the β-hexosaminidase-secreting activity was confirmed at a concentration of 1 μM or less)”.

Take MASRLLRGAGTLAAQALRA [compound 004]: the EC50 amounted to 15 µM and the “Activity” value is given as “● (a peptide in which the β-hexosaminidase-secreting activity was confirmed at a concentration of 10 μM or less)”.

Turning to 008 (MLGQSIRRFTTSVVR) [compound 008], the EC50 is greater than 100 µM and the “Activity” value is given as “▴ (a peptide in which the β-hexosaminidase-secreting activity was confirmed at a concentration of 100 μM or less)”.

On to “MASRLLRGAGTLAAQALRARGPSGAAAMRSM [compound 001]”, for which the 50% effective concentration (EC50) was found to be 23 µM and the “Activity” value is recorded as “● (a peptide in which the β-hexosaminidase-secreting activity was confirmed at a concentration of 10 μM or less)”.

As for `CC[C@H](C)[C@H](NC(=O)[C@H](CS)NC(=O)[C@H](CC(C)C)NC(=O)[C@H](CCC(N)=O)NC(=O)[C@@H]1CCCN1C(=O)[C@H](CO)NC(=O)[C@H](Cc1ccccc1)NC(=O)[C@H](Cc1c[nH]cn1)NC(=O)[C@H](C)NC(=O)[C@H](CCCNC(=N)N)NC(=O)[C@H](CC(C)C)NC(=O)[C@H](CS)NC(=O)[C@H](Cc1c[nH]cn1)NC(=O)[C@H](CCCNC(=N)N)NC(=O)CNC(=O)[C@@H](NC(=O)[C@H](Cc1c[nH]cn1)NC(=O)[C@H](CCCNC(=N)N)NC(=O)[C@H](CC(C)C)NC(=O)[C@H](CC(C)C)NC(=O)[C@H](CC(C)C)NC(=O)[C@H](C)NC(=O)[C@H](C)NC(=O)[C@@H](N)CCSC)C(C)C)C(=O)N[C@@H](CCCNC(=N)N)C(=O)N[C@@H](CC(N)=O)C(=O)N[C@@H](C)C(=O)N[C@H](C(=O)N1CCC[C@H]1C(=O)N[C@@H](CC(C)C)C(=O)O)C(C)C` [compound 023] (H-MAALLLRHVGRHCLRAHFSPQLCIRNAVPL-OH; N-terminus and C-terminus assumed), the EC50 came out at 0.3 µM and the “Activity” value is “⊚ (a peptide in which the β-hexosaminidase-secreting activity was confirmed at a concentration of 300 nM or less)”.

With “003 (MASRLLRGAGTLAAQALRAR) [compound 003]”, the “Activity” value is given as “▴ (a peptide in which the β-hexosaminidase-secreting activity was confirmed at a concentration of 100 μM or less)”.

As for “MAAAALGQIWARKLLSVPWLLCGPRRY [compound 022]”, the concentration for a half-maximal effect (EC50) was found to be 0.8 µM and the “Activity” value is reported as “⊚ (a peptide in which the β-hexosaminidase-secreting activity was confirmed at a concentration of 300 nM or less)”.

With 005 (MASRLLRGAGTLAAQALR) [compound 005], the “Activity” value is reported as “▴ (a peptide in which the β-hexosaminidase-secreting activity was confirmed at a concentration of 100 μM or less)”.

As to “044 (MAAPAVSGLSRQVRCFSTSVVRPF) [compound 044]”, the EC50 was greater than 30 µM and the “Activity” value is listed as “● (a peptide in which the β-hexosaminidase-secreting activity was confirmed at a concentration of 10 μM or less)”.

In the case of “029 (MAAPRAGRGAGWSLRAWRALGGIRWGRRPRL) [compound 029]”, the EC50 was greater than 50 µM and the “Activity” value was “● (a peptide in which the β-hexosaminidase-secreting activity was confirmed at a concentration of 10 μM or less)”.

With MALVHKLLRGTYFLRKFSKPTSAL [compound 025], the 50% effective concentration (EC50) was 1.9 µM and the “Activity” value was “⊚ (a peptide in which the β-hexosaminidase-secreting activity was confirmed at a concentration of 300 nM or less)”.

“002 (MASRLLRGAGTLAAQALRARGPSGAAAMR) [compound 002]”: the “Activity” value is reported as “▴ (a peptide in which the β-hexosaminidase-secreting activity was confirmed at a concentration of 100 μM or less)”.

Regarding “MAAVVALSLRRRLPATTLGGACLQASRG [compound 026]”, the EC50 amounted to 10 µM and the “Activity” value was “● (a peptide in which the β-hexosaminidase-secreting activity was confirmed at a concentration of 10 μM or less)”.

As to MLRNLLALRQIGQRTISTASRRH [compound 012], the EC50 is 0.78 µM and the “Activity” value was “∘ (a peptide in which the β-hexosaminidase-secreting activity was confirmed at a concentration of 1 μM or less)”.

For MKLLTRAGSFSRFY [compound 040], the 50% effective concentration (EC50) worked out at 2 µM and the “Activity” value is “⊚ (a peptide in which the β-hexosaminidase-secreting activity was confirmed at a concentration of 300 nM or less)”.

In the case of MLWNLLALHQIGQRTISTASHRH [compound 019], the EC50 was determined as 0.23 µM and the “Activity” value is reported as “⊚ (a peptide in which the β-hexosaminidase-secreting activity was confirmed at a concentration of 300 nM or less)”.

Consider “016 (MPLLRGRCPARRHYRRLALLGLQPAPRFA) [compound 016]”, for which the EC50 is greater than 20 µM and the “Activity” value was “● (a peptide in which the β-hexosaminidase-secreting activity was confirmed at a concentration of 10 μM or less)”.

For MFRRPVLQVLRQFVRH [compound 037], the EC50 is 0.11 µM and the “Activity” value was “⊚ (a peptide in which the β-hexosaminidase-secreting activity was confirmed at a concentration of 300 nM or less)”.

As for 010 (MLGQSIRRFTTSVVRR) [compound 010], the EC50 was greater than 40 µM and the “Activity” value is “● (a peptide in which the β-hexosaminidase-secreting activity was confirmed at a concentration of 10 μM or less)”.

For “021 (MAIQFRSLFPLALPGMLALLGWWWFFSRK) [compound 021]”, the “Activity” value was “● (a peptide in which the β-hexosaminidase-secreting activity was confirmed at a concentration of 10 μM or less)”.

In the case of “027 (MQRAVSVVARLGFRLQAFPPALCRPLSC) [compound 027]”, the EC50 is greater than 30 µM and the “Activity” value is reported as “● (a peptide in which the β-hexosaminidase-secreting activity was confirmed at a concentration of 10 μM or less)”.

On to “MFPLVKSALNRLQVRSIQQTMARQSHQKRT [compound 031]”, for which the EC50 is 0.2 µM and the “Activity” value is “⊚ (a peptide in which the β-hexosaminidase-secreting activity was confirmed at a concentration of 300 nM or less)”.

As to MFPLARNALSSLKIQSILQSMARH [compound 048], the EC50 was 0.1 µM and the “Activity” value is reported as “⊚ (a peptide in which the β-hexosaminidase-secreting activity was confirmed at a concentration of 300 nM or less)”.

As for “047 (MLSALARPVSAALRRSFSTSAQNN) [compound 047]”, the half-maximal effective concentration (EC50) was greater than 20 µM and the “Activity” value was “● (a peptide in which the β-hexosaminidase-secreting activity was confirmed at a concentration of 10 μM or less)”.

For the molecule “006 (MGGLWRPGWRCVPFCGWRWI) [compound 006]”, the “Activity” value was “▴ x”.
